Laboratory results published in US10508104B2, “6-hydroxy-5-(phenyl/heteroarylsulfonyl)pyrimidin-4(1H)-one as APJ agonists” (Bristol-Myers Squibb Company, priority 2016, dated 2019).

Biological target: human APJ receptor (Homo sapiens (Human), UniProt P35414)
Experiment: Intracellular cAMP accumulation assay (APJ hcAMP, HTRF)
Type: cell-based
Conditions: HEK293 cells stably expressing human APJ receptor; inhibition of forskolin-mediated cAMP production; read-out: Human APJ cAMP EC50 Potency range
Outline: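 HEK293 cells stably expressing human APJ, 5,000 per well, incubated 30 min at rt with compound, […] and 2 μM forskolin. cAMP measured by HTRF against a cAMP standard curve as inhibition of forskolin-driven production. EC50 from variable-slope sigmoidal fit.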

Sequence of human APJ receptor (P35414 whole entry): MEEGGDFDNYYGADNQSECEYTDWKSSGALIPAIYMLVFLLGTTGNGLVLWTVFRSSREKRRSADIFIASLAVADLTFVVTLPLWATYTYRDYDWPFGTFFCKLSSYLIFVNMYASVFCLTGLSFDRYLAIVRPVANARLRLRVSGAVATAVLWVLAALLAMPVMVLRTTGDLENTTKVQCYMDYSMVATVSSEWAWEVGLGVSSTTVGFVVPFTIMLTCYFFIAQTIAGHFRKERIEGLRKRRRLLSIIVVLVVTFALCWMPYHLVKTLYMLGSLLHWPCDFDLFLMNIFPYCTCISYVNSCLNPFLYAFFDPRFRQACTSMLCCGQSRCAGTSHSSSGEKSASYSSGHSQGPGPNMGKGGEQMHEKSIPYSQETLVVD

SMILES | EC50
CCCCc1nc(=O)c(S(=O)(=O)c2ccc(-c3ccnc(F)c3C)cc2)c(O)n1[C@@H](CC)c1cc(F)cc(C#N)c1 [Example 458, 3-[(1S)-1-{2-butyl-5-[4-(2-fluoro-3-methylpyridin-4-yl)benzenesulfonyl]-6-hydroxy-4-oxo-1,4-dihydropyrimidin-1-yl}propyl]-5-fluorobenzonitrile] | 0.01 to 10 nM
CCOCc1nc(=O)c(S(=O)(=O)c2ccc(-c3cccnc3C)cc2)c(O)n1[C@@H](CC)c1cccc(C#N)c1 [Example 445, 3-[(1S)-1-[2-(ethoxymethyl)-6-hydroxy-5-[4-(2-methylpyridin-3-yl)benzenesulfonyl]-4-oxo-1,4-dihydropyrimidin-1-yl]propyl]benzonitrile] | 0.01 to 10 nM
CCCCc1nc(=O)c(S(=O)(=O)c2ccc(C(C)(C)C)cc2)c(O)n1-c1c(OC)cccc1OC [Example 363, 2-butyl-5-(4-tert-butylbenzenesulfonyl)-1-(2,6-dimethoxyphenyl)-6-hydroxy-1,4-dihydropyrimidin-4-one] | 0.01 to 10 nM
CCCCc1nc(=O)c(S(=O)(=O)c2ccc(-c3ccc(F)nc3C)cc2)c(O)n1[C@@H](CC)c1ccc(F)cc1 [Example 426, 2-butyl-5-[4-(6-fluoro-2-methylpyridin-3-yl)benzenesulfonyl]-1-[(1S)-1-(4-fluorophenyl)propyl]-6-hydroxy-1,4-dihydropyrimidin-4-one] | 0.01 to 10 nM

Same assay, conditions: human APJ, cAMP accumulation; read-out: Human APJ cAMP EC50 Potency range

SMILES | EC50
CCCCc1nc(=O)c(S(=O)(=O)c2ccc(-c3cccnc3C)cc2)c(O)n1[C@@H](CC)c1ccc2c(c1)OCO2 [Example 215, 1-[(1S)-1-(2H-1,3-benzodioxol-5-yl)propyl]-2-butyl-6-hydroxy-5-[4-(2-methylpyridin-3-yl)benzenesulfonyl]-1,4-dihydropyrimidin-4-one] | 0.01 to 10 nM
CC[C@@H](c1ccccc1)n1c(COC(C)C)nc(=O)c(S(=O)(=O)c2ccc(-c3cccnc3C)cc2)c1O [Example 313, 6-hydroxy-5-[4-(2-methylpyridin-3-yl)benzenesulfonyl]-1-[(1S)-1-phenylpropyl]-2-[(propan-2-yloxy)methyl]-1,4-dihydropyrimidin-4-one] | 0.01 to 10 nM
CCCCc1nc(=O)c(S(=O)(=O)c2ccc(-c3ccncc3C)cc2)c(O)n1[C@@H](C)c1ccc(OC)cc1 [Example 236, 2-butyl-6-hydroxy-1-[(1S)-1-(4-methoxyphenyl)ethyl]-5-[4-(3-methylpyridin-4-yl)benzenesulfonyl]-1,4-dihydropyrimidin-4-one] | 0.01 to 10 nM
CCOCc1nc(=O)c(S(=O)(=O)c2ccc(Br)cc2)c(O)n1[C@H]1CCc2ccccc21 [Example 297, 5-(4-bromobenzenesulfonyl)-1-[(1S)-2,3-dihydro-1H-inden-1-yl]-2-(ethoxymethyl)-6-hydroxy-1,4-dihydropyrimidin-4-one] | 10 to 100 nM
CCOCc1nc(=O)c(S(=O)(=O)c2ccc(Br)c(F)c2)c(O)n1[C@@H](COC)c1cccc(C#N)c1 [Example 301, 3-[(1R)-1-[5-(4-bromo-3-fluorobenzenesulfonyl)-2-(ethoxymethyl)-6-hydroxy-4-oxo-1,4-dihydropyrimidin-1-yl]-2-methoxyethyl] benzonitrile] | 0.01 to 10 nM
CCCCc1nc(=O)c(S(=O)(=O)c2ccc(-c3ccnc(F)c3C)cc2)c(O)n1[C@@H](C)c1ccccc1OC [Example 239, 2-butyl-5-[4-(2-fluoro-3-methylpyridin-4-yl)benzenesulfonyl]-6-hydroxy-1-[(1S)-1-(2-methoxyphenyl)ethyl]-1,4-dihydropyrimidin-4-one] | 0.01 to 10 nM

Same assay, conditions: human APJ, intracellular cAMP accumulation; read-out: Human APJ cAMP EC50 Potency range

SMILES | EC50
CCCCc1nc(=O)c(S(=O)(=O)c2ccc(-c3ccnc(F)c3C)cc2)c(O)n1[C@H](C)c1cccc(C#N)c1 [Example 159, 3-[(1R)-1-{2-butyl-5-[4-(2-fluoro-3-methylpyridin-4-yl)benzenesulfonyl]-6-hydroxy-4-oxo-1,4-dihydropyrimidin-1-yl}ethyl]benzonitrile] | 0.01 to 10 nM
